The values that follow come from ChEMBL document CHEMBL4371036, “Discovery and structure-activity relationship of imidazolinylindole derivatives as kallikrein 7 inhibitors” (Bioorg Med Chem Lett, 2019).

The term IC50 denotes the concentration that gives 50% inhibition. Usually inhibition stands for the share of the control response that was lost under treatment.

The target of assay [1] is Kallikrein-7 (Homo sapiens, UniProt P49862). Nature of the assay: Inhibition of thermolysin activated recombinant human C-terminal 10-His tagged KLK7 (E23 to H252 residues) using MOCAc-Arg-Pro-Lys-Pro-Val-Glu-Nva-Trp-Arg-Lys(Dnp)-NH2 as substrate preincubated for 10 mins followed by substrate addition and measured after 30 mins by fluorescence analysis.
The target in assay [2] is Kallikrein-7 (Mus musculus) (UniProt Q91VE3). As to the kind of experiment: Inhibition of enterokinase activated recombinant mouse C-terminal His6-tagged KLK7 (Gln22 to Arg249 residues) at 100 uM using MOCAc-Arg-Pro-Lys-Pro-Val-Glu-Nva-Trp-Arg-Lys(Dnp)-NH2 as substrate preincubated for 10 mins followed by substrate addition and measured after 30 mins by fluorescence analysis relative to control.

The target in assay [3] is Kallikrein-7 (Mus musculus, UniProt Q91VE3). Nature of the assay: Inhibition of enterokinase activated recombinant mouse C-terminal His6-tagged KLK7 (Gln22 to Arg249 residues) using MOCAc-Arg-Pro-Lys-Pro-Val-Glu-Nva-Trp-Arg-Lys(Dnp)-NH2 as substrate preincubated for 10 mins followed by substrate addition and measured after 30 mins by fluorescence analysis.
Sequence of Kallikrein-7 (Mus musculus, UniProt Q91VE3) (Q91VE3 whole entry): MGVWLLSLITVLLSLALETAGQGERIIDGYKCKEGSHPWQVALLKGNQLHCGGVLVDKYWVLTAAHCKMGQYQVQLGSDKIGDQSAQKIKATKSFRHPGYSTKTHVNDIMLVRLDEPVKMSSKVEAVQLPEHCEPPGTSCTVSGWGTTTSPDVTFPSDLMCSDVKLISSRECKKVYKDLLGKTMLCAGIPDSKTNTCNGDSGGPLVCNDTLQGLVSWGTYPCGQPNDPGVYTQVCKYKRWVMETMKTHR

Sequence of Kallikrein-7 (Mus musculus) (Q91VE3 whole entry): as above
Sequence of Kallikrein-7 (Homo sapiens, UniProt P49862) (P49862 whole entry, the tested form may be a part): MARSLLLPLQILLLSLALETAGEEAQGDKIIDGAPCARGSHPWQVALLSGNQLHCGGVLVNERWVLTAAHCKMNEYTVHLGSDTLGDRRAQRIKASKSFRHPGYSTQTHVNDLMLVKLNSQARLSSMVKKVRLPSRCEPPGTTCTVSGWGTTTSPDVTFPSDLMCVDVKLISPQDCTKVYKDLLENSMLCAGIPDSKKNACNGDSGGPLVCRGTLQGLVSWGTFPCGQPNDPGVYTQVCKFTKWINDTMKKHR

In the case of `CC1=NC(c2cn(S(=O)(=O)c3ccc(Cl)cc3)c3ccc(C)cc23)CN1` (configuration not stated), the IC50 is 1.9 µM at Kallikrein-7 [1] and more than 100 µM at Kallikrein-7 [3]. Moreover, in assay [2], the inhibition was found to be 33%. Consider `CC1=NC(c2cn(S(C)(=O)=O)c3ccccc23)CN1` (configuration not stated), for which the IC50 at Kallikrein-7 [1] is more than 100 µM.

With `CC1=NC(c2cn(S(=O)(=O)c3ccc(Cl)cc3)c3ccccc23)CN1C` (configuration not stated), the IC50 at Kallikrein-7 [1] was more than 30 µM.

On to `CC1=NC(c2cn(S(=O)(=O)c3ccccc3Br)c3ccc(C)cc23)CN1` (configuration not stated), for which the IC50 at Kallikrein-7 [1] was found to be 0.39 µM; at Kallikrein-7 [3] it was 0.4 µM. Regarding `Cc1ccc(S(=O)(=O)n2cc(C3CNC(C4CCCCC4)=N3)c3ccccc32)cc1` (configuration not stated), the IC50 on Kallikrein-7 [1] is more than 100 µM. On the same count and under the same terms, with `CC1=NC(c2cn(Cc3ccc(Cl)cc3)c3ccccc23)CN1` (configuration not stated) the figure was 22 µM. Consider `CC1=NC(c2cn(S(=O)(=O)c3ccc(C)cc3)c3ccccc23)CN1` (configuration not stated), for which, on Kallikrein-7 [1], the IC50 stood at 10 µM. In addition, in assay [2], the inhibition was determined as 14%. As for `CC1=NC(c2cn(S(=O)(=O)c3c(Cl)cccc3Cl)c3ccc(C)cc23)CN1` (configuration not stated), the values for the IC50 on Kallikrein-7 [1] and at Kallikrein-7 [3] were 14 µM and 10 µM, respectively. For `CC1=NC(c2cn(S(=O)(=O)c3ccc(F)cc3)c3ccc(C)cc23)CN1` (configuration not stated), in that order: 9.4 µM and more than 30 µM. Turning to `CC1=NC(c2cn(S(=O)(=O)c3ccc(Cl)cc3)c3ccccc23)CN1` (configuration not stated), the IC50 on Kallikrein-7 [1] came out at 5.7 µM. The inhibition in assay [2] amounted to 17%. Regarding `CC1=NC(c2cn(S(=O)(=O)c3ccccc3F)c3ccc(C)cc23)CN1` (configuration not stated), the IC50 came out at 4.1 µM at Kallikrein-7 [1] and 6.4 µM on Kallikrein-7 [3]. For `CC1=NC(c2cn(S(=O)(=O)c3cccc(Cl)c3)c3ccc(C)cc23)CN1` (configuration not stated), in that order: 30 µM and 10 µM.

As to `CC1=NC(c2cn(S(=O)(=O)c3ccccc3C#N)c3ccc(C)cc23)CN1` (configuration not stated), the IC50 at Kallikrein-7 [1] is 6.7 µM; at Kallikrein-7 [3], 11 µM. Take `CCC1=NC(c2cn(S(=O)(=O)c3ccc(C)cc3)c3ccccc23)CN1` (configuration not stated): the IC50 at Kallikrein-7 [1] was 24 µM. Turning to `CC1=NC(c2cn(S(=O)(=O)c3ccc(Cl)cc3)c3ccc(Br)cc23)CN1` (configuration not stated), the IC50 on Kallikrein-7 [1] came out at 4.7 µM. For the same compound, the inhibition in assay [2] amounted to 35%. For `CC1=NC(c2cn(S(=O)(=O)c3cccc(Cl)c3)c3ccccc23)CN1` (configuration not stated), in that order: more than 30 µM and 77%.

With `CC1=NC(c2cn(S(=O)(=O)c3ccccc3C)c3ccc(C)cc23)CN1` (configuration not stated), the IC50 at Kallikrein-7 [1] amounted to 1 µM; on Kallikrein-7 [3], 1.3 µM. Regarding `CC1=NC(c2cn(S(=O)(=O)c3ccccc3Cl)c3ccc(C)cc23)CN1` (configuration not stated), the IC50 at Kallikrein-7 [1] came to 1.2 µM; at Kallikrein-7 [3] it was 1.5 µM. For `CC1=NC(c2cn(S(=O)(=O)c3ccccc3)c3ccc(C)cc23)CN1` (configuration not stated), in that order: 17 µM and 15 µM. As for `Cc1ccc(S(=O)(=O)n2cc(C3CNC(C(C)C)=N3)c3ccccc32)cc1` (configuration not stated), on Kallikrein-7 [1], the IC50 was found to be 70 µM. Take `CC1=NC(c2cn(S(=O)(=O)c3cccs3)c3ccc(C)cc23)CN1` (configuration not stated): the IC50 stood at 11 µM at Kallikrein-7 [1] and 22 µM at Kallikrein-7 [3].
